≈ marks a conversion by molar mass, not a printed value.
What was measured:
E. coli HS151 (qnrVC) = assay: Broth microdilution MIC, E. coli HS151 (qnrVC); assay type: cell-based
Source text: E. coli HS151 (ΔtolC) has been described previously. Gyrase inhibitor-resistant isolates (GYR101-108) were derived by selection for spontaneous resistance to MRL-770 or MRL-423 (Fig 1) in E. coli HS151 as described below. E. coli BW25113 and the Keio gene deletion collection based on BW25113 [25] were obtained from Thermo Fisher Scientific (Waltham, MA) and described in [26]. The plasmid-borne FQ resistance determinant, qnrVC3 [27], was kindly provided by D. Hooper (Massachusetts General Hospital). MB9796 (A. baumannii) is a derivative of MB9797 (ATCC19606) lacking lipopolysaccharide. The efflux-defective P. aeruginosa strain MB5890 (CB398) is a derivative of MB5919 (PAO1). MB2884 (E. coli) and CL15245 (K. pneumoniae) are clinical isolates from the Merck & Co., Inc., Kenilworth, NJ, USA, strain collection. S. aureus COL is a methicillin-resistant clinical isolate.
Compound doubling dilutions were prepared in 100% DMSO (Sigma Aldrich) and 2 μL of each dilution was transferred to a 96-well plate with lid (Thermo Scientific). Inoculum for all MIC testing was prepared using the BBL Prompt Inoculation System (Becton Dickinson, Franklin Lakes, NJ USA) as described by the manufacturer to produce a suspension of cells at approximately 1.5 x 10^8 colony forming units (CFU)/mL [34–36] and a further dilution (1:1000) was made into cation adjusted Mueller-Hinton broth (CAMH broth, Becton-Dickinson). One hundred μL of this inoculum were then transferred to each well of the 96-well plate containing diluted compound (above). Plates were covered and incubated overnight (18 hrs.) at 37°C.

P. aeruginosa DNA gyrase = biological target: T1, P. aeruginosa DNA gyrase (Pseudomonas aeruginosa, UniProt Q9I7C2); assay: Agarose gel DNA gyrase supercoiling assay, P. aeruginosa; assay type: biochemical; settings: gel-based assay, Fig 3B
T1 construct: purchased Inspiralis, Norwich, UK
Method: Conditions to measure the supercoiling of a relaxed, closed-circular plasmid substrate and cleavage complex stabilization in agarose gels were adapted from the literature and carried out as described below. Plasmid supercoiling reactions were assembled by combining 0.4 μL compound (in 100% DMSO), 12.5 μL H2O, 4 μL 5Xbuffer, 0.4 μL relaxed pUC19 DNA substrate (0.5 μg), […] dilute DNA gyrase (buffer, substrate, and enzyme from New England Biolabs, Beverly, MA). Alternatively the substrate pHOT-1 (TopoGEN, Buena Vista, CO) was used as noted (the substrate from New England Biolabs has been discontinued). P. aeruginosa DNA gyrase was supplied by Inspiralis, Norwich, UK. Reactions were allowed to proceed for 30 min. at 37°C after which 5 μL of stop buffer (5% sarkosyl, 25% glycerol, 1X Blue Juice [Invitrogen, Carlsbad, CA]) were added. Reactions were then extracted with 20 μL chloroform/isoamylOH (24:1) and a portion of the aqueous phase was loaded into a well in a 1% agarose/Tris-borate EDTA gel. Electrophoresis was conducted at 35 VDC until the loading dye migrated about 6.5 cm down the gel. DNA in the gel was then stained in 0.5 μg/mL ethidium bromide in water for 30 min. and rinsed (3X) in H2O. The gel was illuminated with UV light, photographed, and DNA quantitated with an Alpha Imager and accompanying software (ProteinSimple, San Jose, CA). […]

[1] = biological target: T2, wild-type E. coli DNA gyrase (recombinant GyrA/GyrB) (Escherichia coli, UniProt P0AES6); assay: Gel supercoiling assay, reconstituted wild-type gyrase; assay type: biochemical
T2 construct: made in house; host or cells: E. coli BL21(DE3) RIL
Method: Conditions to measure the supercoiling of a relaxed, closed-circular plasmid substrate and cleavage complex stabilization in agarose gels were adapted from the literature and carried out as described below. Plasmid supercoiling reactions were assembled by combining 0.4 μL compound (in 100% DMSO), 12.5 μL H2O, 4 μL 5Xbuffer, 0.4 μL relaxed pUC19 DNA substrate (0.5 μg), […] dilute DNA gyrase (buffer, substrate, and enzyme from New England Biolabs, Beverly, MA). Alternatively the substrate pHOT-1 (TopoGEN, Buena Vista, CO) was used as noted (the substrate from New England Biolabs has been discontinued). P. aeruginosa DNA gyrase was supplied by Inspiralis, Norwich, UK. […] The gel was illuminated with UV light, photographed, and DNA quantitated with an Alpha Imager and accompanying software (ProteinSimple, San Jose, CA). […]
The E. coli gyrA and gyrB (wild-type and t1537c (F513L)) genes with a N-terminal His6 tag sequence followed by Tobacco Etch Virus (TEV) cleavage site ([…]) were cloned into pET28(+) vector (EMD Millipore). […] Fractions containing gyrase subunit protein (as monitored by sodium dodecyl sulfate polyacrylamide gel electrophoresis (SDS-PAGE)) were pooled and loaded onto a Q-Sepharose column (GE Healthcare, Princeton, NJ, USA) equilibrated in 20 mM Tris-HCl (pH = 7.9), 25mM NaCl, 10% glycerol, and 2 mM β-mercaptoethanol. […]

T1 sequence (Q9I7C2 whole entry): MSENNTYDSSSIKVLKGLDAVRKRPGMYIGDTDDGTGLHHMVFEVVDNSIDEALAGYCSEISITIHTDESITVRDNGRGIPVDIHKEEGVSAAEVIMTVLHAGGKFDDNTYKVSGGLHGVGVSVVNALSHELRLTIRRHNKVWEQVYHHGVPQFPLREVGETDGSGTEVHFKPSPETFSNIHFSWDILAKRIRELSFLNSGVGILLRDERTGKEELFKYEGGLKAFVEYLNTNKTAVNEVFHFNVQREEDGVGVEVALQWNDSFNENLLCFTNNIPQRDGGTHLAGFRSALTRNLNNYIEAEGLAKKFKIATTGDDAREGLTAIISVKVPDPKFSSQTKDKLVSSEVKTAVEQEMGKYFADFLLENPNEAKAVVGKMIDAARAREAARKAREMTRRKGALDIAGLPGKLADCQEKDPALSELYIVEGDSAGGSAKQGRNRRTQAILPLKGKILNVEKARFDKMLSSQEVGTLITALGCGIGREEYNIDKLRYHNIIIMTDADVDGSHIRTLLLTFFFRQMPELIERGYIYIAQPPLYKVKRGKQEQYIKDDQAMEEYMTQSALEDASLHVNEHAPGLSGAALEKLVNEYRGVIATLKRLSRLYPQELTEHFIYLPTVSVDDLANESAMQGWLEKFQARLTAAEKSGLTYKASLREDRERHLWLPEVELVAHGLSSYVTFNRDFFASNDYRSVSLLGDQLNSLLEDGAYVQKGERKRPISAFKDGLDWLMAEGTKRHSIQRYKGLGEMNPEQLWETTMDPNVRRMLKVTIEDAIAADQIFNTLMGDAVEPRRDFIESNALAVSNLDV
T1 sequence (P48372 whole entry, further chain): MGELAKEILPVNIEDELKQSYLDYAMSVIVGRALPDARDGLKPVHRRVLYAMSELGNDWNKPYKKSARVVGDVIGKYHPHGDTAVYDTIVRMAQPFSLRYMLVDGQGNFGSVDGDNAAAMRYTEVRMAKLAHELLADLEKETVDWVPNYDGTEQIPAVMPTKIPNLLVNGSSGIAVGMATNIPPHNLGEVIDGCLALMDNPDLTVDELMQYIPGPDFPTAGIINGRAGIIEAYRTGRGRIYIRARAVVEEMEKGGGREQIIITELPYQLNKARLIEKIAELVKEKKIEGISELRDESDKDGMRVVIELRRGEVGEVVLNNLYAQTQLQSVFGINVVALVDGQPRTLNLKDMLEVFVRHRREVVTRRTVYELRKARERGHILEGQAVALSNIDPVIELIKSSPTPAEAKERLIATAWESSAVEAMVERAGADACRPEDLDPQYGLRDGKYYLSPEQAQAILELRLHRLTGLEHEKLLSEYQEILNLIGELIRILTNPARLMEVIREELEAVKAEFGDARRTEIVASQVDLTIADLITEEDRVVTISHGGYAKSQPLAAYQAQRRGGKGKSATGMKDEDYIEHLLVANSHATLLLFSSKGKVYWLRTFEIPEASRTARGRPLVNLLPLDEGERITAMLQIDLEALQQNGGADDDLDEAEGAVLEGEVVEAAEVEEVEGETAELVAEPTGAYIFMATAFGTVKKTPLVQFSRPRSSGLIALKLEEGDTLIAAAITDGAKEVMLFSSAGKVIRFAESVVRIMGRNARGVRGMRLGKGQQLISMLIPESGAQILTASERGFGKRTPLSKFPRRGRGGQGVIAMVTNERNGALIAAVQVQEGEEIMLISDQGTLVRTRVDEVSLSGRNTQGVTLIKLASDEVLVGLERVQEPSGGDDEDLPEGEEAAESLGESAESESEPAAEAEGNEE

Cn1ncc2cc(-c3cnnn3C3CCN(C(=O)Nc4cc(Cl)cc(Cl)c4)CC3)ccc21 [MRL-423]
resistance conferred by qnrVC3 expression (E. coli HS151 (qnrVC); E. coli HS151 with plasmid qnrVC3 vs HS151): no effect
MIC (E. coli HS151 (qnrVC); Escherichia coli): 0.25 µg/mL (≈ 0.532 µM)

Cn1ncc2cc(-c3nnnn3C3CCN(C(=O)Nc4ccc(Cl)c(Cl)c4)CC3)ccc21 [MRL-1082]
activity against P. aeruginosa DNA gyrase (P. aeruginosa DNA gyrase): active
IC50 [1]: ~3.5 µM

Reference: paper PMC5507300, “Antibacterial small molecules targeting the conserved TOPRIM domain of DNA gyrase” (PLoS ONE, 2017)
